Assay results from patent publication US20260200920A1, “SUBSTITUTED AMINOPYRIDINE COMPOUNDS FOR USE AS AKT1 INHIBITORS” (Atavistik Bio, Inc., priority 2023, published 2026).

Key:
[1] = target: T1, human recombinant kinase full-length AKT1 E17K (Homo sapiens, UniProt P31749, E17K); test: AKT1 E17K kinase assay (TR-FRET, Lance); type: biochemical; details: 0.6 nM AKT1 E17K, 50 nM Ulight-CREBtide, either 50 μM ATP or 2 mM ATP, 60 min at RT
T1 construct: Purified human recombinant kinase full-length AKT1 E17K was expressed in insect cells; made in house; host or cells: insect cells
T1 sequence (P31749 whole entry E17K): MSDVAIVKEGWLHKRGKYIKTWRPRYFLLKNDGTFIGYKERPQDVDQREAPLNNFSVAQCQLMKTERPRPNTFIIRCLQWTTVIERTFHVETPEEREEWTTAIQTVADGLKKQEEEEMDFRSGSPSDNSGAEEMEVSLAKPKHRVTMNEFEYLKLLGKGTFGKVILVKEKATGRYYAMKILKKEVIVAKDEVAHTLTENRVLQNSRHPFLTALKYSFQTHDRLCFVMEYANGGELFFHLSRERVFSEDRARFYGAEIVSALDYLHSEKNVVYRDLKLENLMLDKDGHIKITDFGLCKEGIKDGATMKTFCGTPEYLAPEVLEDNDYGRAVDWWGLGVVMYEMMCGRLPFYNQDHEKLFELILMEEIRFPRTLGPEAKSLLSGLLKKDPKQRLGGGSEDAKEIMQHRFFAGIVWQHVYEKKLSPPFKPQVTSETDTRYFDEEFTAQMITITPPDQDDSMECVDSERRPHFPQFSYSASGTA
Protocol: AKT1 E17K kinase assay: Inhibitory effects of compounds on AKT1 E17K were undertaken in a 10-pt dose response kinase activity assay measuring phospho-peptide product formation based on TR-FRET signal as described in the following paragraph.
(§1) Purified human recombinant kinase full-length AKT1 E17K was expressed in insect cells and activated in vitro by PDPK1. Ulight™-CREBtide (PerkinElmer, catalog number TRF0107) was used as the peptide substrate. The reaction buffer consisted of 50 mM HEPES pH 7.5, 10 mM MgCl2, 0.01% Triton X-100, 0.01% BSA, 2 mM DTT, 0.6 nM AKT1 E17K, 50 nM Ulight™-CREBtide and either 50 μM ATP or 2 mM ATP. The compound solution was prepared as 10 mM DMSO stock. For the assay, a 1.3 serial dilution 10-pt dose response of test compounds, in duplicate, for each concentration were dispensed into a 384-well plate (Corning, catalog number 4513). Final DMSO concentration in the assay was 1%. The enzyme mixture (5 μL, 1.2 nM) were added and the mixture was incubated for 15 min at RT prior to the start of the kinase reaction by the addition of 5 μL substrate mixture (100 nM Ulight™-CREBtide). The reaction was stopped after 60 min of incubation at RT by the addition of 10 μL of Detection Mix (PerkinElmer, #CR97-100) consisting of Europium-anti-phospho-CREB (Ser133) (Perkin Elmer, catalog number TRF0200). Incubation with the detection mix for a further 60 min allowed binding of antibody to the phospho-Ulight™ CREBtide. The fluorescence emissions at 620 nm and 665 nm after excitation at 350 nm was measured using Envision reader. The ratio of the emissions at 665 nm and at 620 nm provided the measure for the amount of phosphorylated CREBtide product of AKT1 E17K kinase activity. To determine the IC50 values, the data was normalized (enzyme reaction without inhibitor=0% inhibition, all other assay components but no enzyme=100% inhibition) and IC50 values were calculated by a 4-parameter fit using an in-house developed protocol.
Table 9 assigns each compound a code for potency in the AKT1 E 17K kinase assay: A, B, or C. According to the code, A represents an IC50 value <500 nM; B represents an IC50 value from ≥500 nM to <2000 nM; and C represents an IC50 value ≥2000 nM.

[2] = target: T2, human recombinant kinase full-length wildtype AKT1 (Homo sapiens, UniProt P31749); test: AKT1 kinase assay (wildtype, TR-FRET, Lance); type: biochemical; details: 0.6 nM wildtype AKT1, 50 nM Ulight-CREBtide, either 50 μM ATP or 2 mM ATP, 60 min at RT
T2 construct: Purified human recombinant kinase full-length wildtype AKT1 was expressed in insect cells; made in house; host or cells: insect cells
T2 sequence (P31749 whole entry): as the sequence (P31749 whole entry E17K) above, with K17E counted along it
Protocol: AKT1 kinase assay: Inhibitory effects of compounds on wildtype AKT1 were undertaken in a 10-pt dose response kinase activity assay measuring phospho-peptide product formation based on TR-FRET signal as described in the following paragraph.
as §1, with “full-length wildtype” for “full-length”, “AKT1” for “AKT1 E17K”, “AKT1,50” for “AKT1 E17K, 50”, “1:3” for “1.3”
The symbol +++ represents an IC50 value <20 μM; the symbol ++ represents an IC50 value from ≥20 μM to 80 μM.

Structure (SMILES) | IC50 [1] | IC50 [2]
CC(C(=O)O)C1CCN(c2ccc(-n3c(-c4cccnc4N)nc4ccc(-c5ccccc5)nc43)cn2)C1 (stereo not drawn) [Compound I-26, 2-(1-(5-(2-(2-aminopyridin-3-yl)-5-phenyl-3H-imidazo[4,5-b]pyridin-3-yl)pyridin-2-yl)pyrrolidin-3-yl)propanoic acid] | ≥ 2000 nM | < 20000 nM
Nc1ncccc1-c1nc2ccc(-c3ccccc3)nc2n1-c1ccc(N2CCCC(C(=O)O)C2)nc1 (stereo not drawn) [Compound I-28, 1-(5-(2-(2-aminopyridin-3-yl)-5-phenyl-3H-imidazo[4,5-b]pyridin-3-yl)pyridin-2-yl)piperidine-3-carboxylic acid] | ≥ 2000 nM | < 20000 nM
Nc1ncccc1-c1nc2ccc(-c3ccccc3)cc2n1-c1ccc(NC(=O)[C@H]2CC[C@H](C(=O)O)CC2)nc1 [Compound I-32, (1r,4r)-4-((5-(2-(2-aminopyridin-3-yl)-6-phenyl-1H-benzo[d]imidazol-1-yl)pyridin-2-yl)carbamoyl)cyclohexane-1-carboxylic acid] | 500 to 2000 nM | < 20000 nM
Nc1ncccc1-c1nc2ccc(N3CCOCC3)cc2n1-c1ccc(NC(=O)[C@H]2CC[C@H](C(=O)O)CC2)cc1 [Compound I-33, (1r,4r)-4-((4-(2-(2-aminopyridin-3-yl)-6-morpholino-1H-benzo[d]imidazol-1-yl)phenyl)carbamoyl)cyclohexane-1-carboxylic acid] | ≥ 2000 nM | < 20000 nM
Nc1ncccc1-c1nc2ccc(C3CCOCC3)cc2n1-c1ccc(NC(=O)[C@H]2CC[C@H](C(=O)O)CC2)cc1 [Compound I-34, (1r,4r)-4-((4-(2-(2-aminopyridin-3-yl)-6-(tetrahydro-2H-pyran-4-yl)-1H-benzo[d]imidazol-1-yl)phenyl)carbamoyl)cyclohexane-1-carboxylic acid] | ≥ 2000 nM | < 20000 nM
CC(C)(C)c1ccc2nc(-c3cccnc3N)n(-c3ccc(NC(=O)[C@H]4CC[C@H](C(=O)O)CC4)cc3)c2c1 [Compound I-35, (1r,4r)-4-((4-(2-(2-aminopyridin-3-yl)-6-(tert-butyl)-1H-benzo[d]imidazol-1-yl)phenyl)carbamoyl)cyclohexane-1-carboxylic acid] | ≥ 2000 nM | < 20000 nM
Nc1ncccc1-c1nc2ccc(-c3ccccc3)nc2n1-c1ccc(CNC(=O)C2CC(=O)CC(=O)C2)cc1 [Compound I-38, N-(4-(2-(2-aminopyridin-3-yl)-5-phenyl-3H-imidazo[4,5-b]pyridin-3-yl)benzyl)-3,5-dioxocyclohexane-1-carboxamide] | < 500 nM | < 20000 nM
CC(C)(C(=O)O)C1CCN(c2ccc(-n3c(-c4cccnc4N)nc4ccc(-c5ccccc5)nc43)cn2)C1 (stereo not drawn) [Compound I-39, 2-(1-(5-(2-(2-aminopyridin-3-yl)-5-phenyl-3H-imidazo[4,5-b]pyridin-3-yl)pyridin-2-yl)pyrrolidin-3-yl)-2-methylpropanoic acid] | ≥ 2000 nM | < 20000 nM
Nc1ncccc1-c1nc2ccc(-c3ccc(F)cc3)nc2n1-c1ccc(NC(=O)[C@H]2CC[C@H](C(=O)O)CC2)nc1 [Compound I-40, (1r,4r)-4-((5-(2-(2-aminopyridin-3-yl)-5-(4-fluorophenyl)-3H-imidazo[4,5-b]pyridin-3-yl)pyridin-2-yl)carbamoyl)cyclohexane-1-carboxylic acid] | < 500 nM | < 20000 nM
Nc1ncccc1-c1nc2ccc(-n3cccn3)nc2n1-c1ccc(NC(=O)[C@H]2CC[C@H](C(=O)O)CC2)nc1 [Compound I-41, (1r,4r)-4-((5-(2-(2-aminopyridin-3-yl)-5-(1H-pyrazol-1-yl)-3H-imidazo[4,5-b]pyridin-3-yl)pyridin-2-yl)carbamoyl)cyclohexane-1-carboxylic acid] | < 500 nM | < 20000 nM
Nc1ncccc1-c1nc2ccc(-c3ccccc3)nc2n1-c1ccc(NC(=O)C2CC3(CC(C(=O)O)C3)C2)cc1 (stereo not drawn) [Compound I-46, 6-[[4-[2-(2-amino-3-pyridyl)-5-phenyl-imidazo[4,5-b]pyridin-3-yl]phenyl]carbamoyl]spiro[3.3]heptane-2-carboxylic acid] | < 500 nM | < 20000 nM

More lines, now with the values ahead:

IC50 [1] | IC50 [2] | Structure (SMILES)
500 to 2000 nM | < 20000 nM | Nc1ncccc1-c1nc2ccc(-c3ccccc3)nc2n1-c1ccc(N2CCC(C(=O)O)CC2)nc1 [Compound I-27, 1-(5-(2-(2-aminopyridin-3-yl)-5-phenyl-3H-imidazo[4,5-b]pyridin-3-yl)pyridin-2-yl)piperidine-4-carboxylic acid]
500 to 2000 nM | < 20000 nM | Nc1ncccc1-c1nc2ccc(-c3ccccc3)nc2n1-c1ccc(CN2CCC(C(=O)O)CC2)cc1 [Compound I-29, 1-(4-(2-(2-aminopyridin-3-yl)-5-phenyl-3H-imidazo[4,5-b]pyridin-3-yl)benzyl)piperidine-4-carboxylic acid]
≥ 2000 nM | < 20000 nM | Nc1ncccc1-c1nc2ccc(-c3ccccc3)nc2n1-c1ccc(CN2CCC(C(=O)O)CC2)c(F)c1 [Compound I-30, 1-(4-(2-(2-aminopyridin-3-yl)-5-phenyl-3H-imidazo[4,5-b]pyridin-3-yl)-2-fluorobenzyl)piperidine-4-carboxylic acid]
500 to 2000 nM | < 20000 nM | Nc1ncccc1-c1nc2ccc(-c3ccccc3)nc2n1-c1ccc(CNC2CCC(C(=O)O)CC2)cc1 (stereo not drawn) [Compound I-31, 4-((4-(2-(2-aminopyridin-3-yl)-5-phenyl-3H-imidazo[4,5-b]pyridin-3-yl)benzyl)amino)cyclohexane-1-carboxylic acid]
500 to 2000 nM | < 20000 nM | Nc1ncccc1-c1nc2ccc(-c3ccccc3)nc2n1-c1ccc(C2CN(C[C@H]3CC[C@@H](C(=O)O)CC3)C2)cc1 [Compound I-36, (1s,4s)-4-((3-(4-(2-(2-aminopyridin-3-yl)-5-phenyl-3H-imidazo[4,5-b]pyridin-3-yl)phenyl)azetidin-1-yl)methyl)cyclohexane-1-carboxylic acid]
< 500 nM | < 20000 nM | Nc1ncccc1-c1nc2ccc(-c3ccccc3)nc2n1-c1ccc(C2CN(C(=O)C3CC(=O)CC(=O)C3)C2)cc1 [Compound I-37, 5-(3-(4-(2-(2-aminopyridin-3-yl)-5-phenyl-3H-imidazo[4,5-b]pyridin-3-yl)phenyl)azetidine-1-carbonyl)cyclohexane-1,3-dione]
< 500 nM | < 20000 nM | Nc1ncccc1-c1nc2ccc(-c3ccccc3)nc2n1-c1ccc(NC[C@H]2CC[C@H](C(=O)O)CC2)nc1 [Compound I-43, (1r,4r)-4-(((5-(2-(2-aminopyridin-3-yl)-5-phenyl-3H-imidazo[4,5-b]pyridin-3-yl)pyridin-2-yl)amino)methyl)cyclohexane-1-carboxylic acid]
